For one series, the system named is HCoV‐229E. In words: microbe, parasite or virus in culture. In kind it is cell-based.
The nature of series [1]: in vitro. The note with it: human.
Series [2] has as its target T1, SARS‐CoV‐2 M^pro (Severe acute respiratory syndrome coronavirus 2, UniProt P0DTD1). In words: biochemical. As to conditions: reported K M value and Cheng‐Prusoff equation.
In series [3] the target is T1, SARS‐CoV‐2 M^pro. In words: SARS‐CoV‐2 main protease enzymatic assay (FRET inhibitor screening kit). In kind it is biochemical.
Series [4] relates to SARS‐CoV‐2 Delta (hCoV‐19/Korea/KDCA119861/2021). Nature of the series: microbe, parasite or virus in culture. As to conditions: Severe acute respiratory syndrome coronavirus 2; Calu‐3; read-out: EC50 ± SD, SARS‐CoV‐2 Delta. In kind it is cell-based.
Series [5] has as its system SARS‐CoV‐2 S and N proteins. The format is cell-based.
The nature of series [6]: in vitro. The note with it: rhesus monkey.

SMILES strings stand for the structures. Where only a bound is given, the exact number is not on record here.

From paper PMC11578313, “Miniaturized Modular Click Chemistry‐enabled Rapid Discovery of Unique SARS‐CoV‐2 M^pro Inhibitors With Robust Potency and Drug‐like Profile” (Advanced Science, 2024) come the findings set out here.

Broadly, the Ki is a dissociation constant, usually derived from enzyme kinetics or from competition with a known ligand. One may read the IC50 as the midpoint of a concentration-inhibition curve. As to `Cc1cncc(C(=O)N2C[C@H]3CC[C@@H](C2)N3[C@H](c2cccc(F)c2)c2cn(CCc3ccsc3)nn2)c1` [Compound C5N17B], the EC50 was over 100 µM in the series on HCoV‐229E (Human coronavirus 229E, MRC5, read-out: EC50 ± SD, HCoV‐229E) and 0.154 ± 0.019 µM in series [4]. Further, the “EC50 ± SD, HCoV‐229E” value with HCoV‐229E (MRC‐5) is reported as “failed to inhibit”. In addition, the CC50 in the series “in vitro [1]” and in “in vitro [6]” was over 100 µM each time. The CC50 at 2 day in “in vitro [1]” (CC50 (Table 3), Calu‐3 cells) was over 100 µM; in “in vitro [1]” (CC50, Calu‐3 cells, MTT assay) it was over 100 µM; in “in vitro [1]” (CC50, column 9, after the Calu-3 EC50 columns), over 100 µM. Moreover, the Ki on SARS‐CoV‐2 M^pro [2] is 0.0266 µM. The molecule also showed an IC50 on SARS‐CoV‐2 M^pro [3] of 0.12 µM. Further, on SARS‐CoV‐2 M^pro [3] (5 μM, read-out: Inhibitionrate at @5μM), the inhibition at 5 µM was 99.6%. Also, the “fold stronger enzyme inhibitory activity than C5N17A” value at SARS‐CoV‐2 M^pro [3] (IC50 ratio) was found to be 27 fold. In series [5], the “SARS‐CoV‐2 S and N proteins in virus‐infected cells” value is “dose‐dependent reduction”.
